Converted amounts (≈) assume the structure as drawn. “And” between values parts separate entries of the source, which are not always exact repeats. Equal values may be shown once.
Assays:
[1] = in vitro; conditions: mouse
Description: DNDI: half life in mouse liver microsomes at a concentration of 1uM

[2] = DNDI: Cytotoxicity against L929 mouse fibroblasts, CYTO-SP, 24 hour; assay type: toxicity, cell-based; conditions: mouse, L929 mouse fibroblasts
[3] = in vitro; conditions: human
Description: DNDI: half life in human liver microsomes at a concentration of 1uM

[4] = DNDI: Lipophilicity measured in Chromatographic hydrophobicity index (CHI) assay, pH 7.4; assay type: physicochemical; conditions: buffer
[5] = in vitro; conditions: human; remark: listed apart in the source
Description: DNDI: in vitro intrinsic clearance in human liver microsomes at a concentration of 1uM

[6] = tested on: Trypanosoma brucei; assay: DNDI: Inhibition of Human African Trypanosomiasis, SBRI 427, in vitro; assay type: functional, organism-based
[7] = mouse, microsomes, 1 µM
Description: DNDI: in vitro intrinsic clearance in mouse liver microsomes at a concentration of 1uM

[8] = DNDI: Solubility in phosphate buffered saline at pH7.4 measured by nephelometry at room temperature (NEPH-RT); assay type: physicochemical; conditions: pH 7.4
[9] = DNDI: half life in mouse liver microsomes at a concentration of 10uM; assay type: ADME, Microsome
[10] = DNDI: Cytotoxicity against L-6 rat myoblasts from skeletal muscle cells; assay type: toxicity, cell-based, L6; conditions: L-6 rat skeletal muscle myoblasts
[11] = tested on: Trypanosoma cruzi; assay: DNDI: Inhibition of Chagas Disease parasite Trypanosoma cruzi (Tulahuen LacZ, Clone C4), in vitro.; assay type: functional, organism-based
[12] = DNDI: Cytotoxicity against L929 mouse fibroblasts, 72 hour.; assay type: toxicity, cell-based; conditions: mouse, L929 mouse fibroblasts
[13] = DNDI: half life in human liver microsomes at a concentration of 10uM; assay type: ADME, Microsome
[14] = tested on: Plasmodium falciparum; assay: DNDI: Inhibition of the malaria parasite Plasmodium falciparum, in vitro; assay type: functional, organism-based; conditions: K1
[15] = DNDI: in vitro intrinsic clearance in mouse liver microsomes at a concentration of 10uM; assay type: ADME, Microsome; conditions: read-out: CLint in vitro
[16] = DNDI: Solubility in phosphate buffered saline at pH7.4 measured by optical density (turbidimetry) at room temperature (OD-RT); assay type: physicochemical; conditions: pH 7.4
[17] = tested on: Trypanosoma brucei rhodesiense; assay: DNDI: Inhibition of Human African Trypanosomiasis (HAT), STIB 900, in vitro; assay type: functional, organism-based
[18] = DNDI: in vitro intrinsic clearance in human liver microsomes at a concentration of 10uM; assay type: ADME, Microsome
[19] = tested on: Leishmania donovani; assay: DNDI: Inhibition of formation of Leishmania donovani (strain MHOM/ET/67/L82) axenic amastigotes, in vitro.; assay type: functional, organism-based
[20] = tested on: Trypanosoma brucei; assay: DNDI: Mean survival time in days (MSD) of mice after intraperitoneal injection of Human African Trypanosomiasis (HAT), EATRO 110, in vivo at 20 mg/kg/day for 4 days.; assay type: functional, Mus musculus
[21] = tested on: Trypanosoma brucei; assay: DNDI: Inhibition of Human African Trypanosomiasis, Cross 22, in vitro; assay type: functional, organism-based
[22] = liver microsomes, CLint in vitro
[23] = Trypanosoma brucei, SBRI 427, read-out: IC50

| SMILES | half-life at 1 µM ([1]; liver microsomes, t (1 / 2)) [h] | IC50 at 24 h [2] [µg/mL] | half-life at 1 µM ([3]; liver microsomes, t (1 / 2)) [h] | chromatographic logD [4] | microsomal CLint at 1 µM [5, 22] [µL/min/mg] | IC50 [6, 23] [µg/mL] | CLint in vitro [7] [µL/min/mg] | solubility kinetic [8] [µM] | half-life at 10 µM [9] [h] | IC50 [10] [µg/mL] | IC50 [11] [µg/mL] | IC50 at 72 h [12] [µg/mL] | half-life at 10 µM [13] [h] | IC50 [14] [µg/mL] | microsomal CLint at 10 µM [15] [µL/min/mg] | solubility kinetic [16] [µM] | IC50 [17] [µg/mL] | CLint in vitro [18] [µL/min/mg] | IC50 [19] [µg/mL] | also measured |
| --- | --- | --- | --- | --- | --- | --- | --- | --- | --- | --- | --- | --- | --- | --- | --- | --- | --- | --- | --- | --- |
| O/N=C(/NC1CCCCC1)c1cccc2ccccc12 | 0.0833 | > 50 | 1.15 | 4.43 | 12 | 3.96 (≈ 14.8 µM) | 168 | 50 (≈ 13.4 µg/mL) | – | – | – | – | – | – | – | – | – | – | – | – |
| O/N=C(\NC1CCCC1)c1ccccc1-c1ccccc1 | – | > 50 | – | 4.3 | – | 1.17 (≈ 4.17 µM) | – | – | 0.2 | > 90 | 21.4 (≈ 76.3 µM) | > 10 | 4.33 | 2.57 (≈ 9.17 µM) | 243 | 50 (≈ 14 µg/mL) | 18.5 (≈ 66 µM) | 11 | 53.1 (≈ 189 µM) | – |
| O/N=C(\NC1CCCCC1)c1ccccc1 | – | 50 (≈ 229 µM) | – | 3.9 | – | 0.92 (≈ 4.21 µM) | 111 | – | 0.583 | 49.7 (≈ 227 µM) | > 30 | > 10 | 4.82 | > 5 | 82 | > 200 | 13.6 (≈ 62.3 µM) | 10 | 40.9 (≈ 187 µM) | half-life at 1 µM ([1]; microsomes, t (1 / 2)): 0.133 h |
| COc1cccc(/C(=N/O)NC2CCCCC2)c1 | – | > 50 | – | 3.84 | – | 0.57 (≈ 2.3 µM) | – | – | 0.117 | 63.3 (≈ 255 µM) | > 30 | > 10 | 3.65 | 4.4 (≈ 17.7 µM) | 421 | 100 (≈ 24.8 µg/mL) | 14.4 (≈ 58 µM) | 13 | 34 (≈ 137 µM) | MSD [20]: 4 days |
| O/N=C(\NC1CCCCC1)c1ccccc1Oc1ccccc1 | – | > 50 | – | 4.43 | – | 0.62 (≈ 2 µM) | – | – | 0.0667 | > 90 | > 30 | > 10 | 1.07 | 4.41 (≈ 14.2 µM) | 767 | 100 (≈ 31 µg/mL) | 62.6 (≈ 202 µM) | 45 | 73.4 (≈ 236 µM) | – |
| CCCCc1ccc(-c2nc(CNC[C@@H]3CC[C@H]4C[C@@H]3C4(C)C)co2)cc1 | – | > 50 | 0.65 | 6.68 | 22 | – | – | 3 (≈ 1.1 µg/mL) | – | 2.89 (≈ 7.88 µM) | 2.61 (≈ 7.12 µM) | > 10 | – | 0.389 (≈ 1.06 µM) | – | – | 0.361 (≈ 0.985 µM) | – | 4.84 (≈ 13.2 µM) | MSD [20]: 3.5 days; IC50 [21]: 0.31 µg/mL (≈ 0.846 µM) |
| O/N=C(\NC1CCCCC1)c1cccnc1 | – | 50 (≈ 228 µM) | – | 2.82 | – | > 5 | 12 | > 200 | – | – | – | – | – | – | – | – | – | – | – | half-life at 1 µM ([1]; microsomes): 1.17 h; half-life at 1 µM ([3]; microsomes): 4.62 h; microsomal CLint at 1 µM ([5]; microsomes): 3 µL/min/mg |
| O/N=C(\NC1CCCCC1)c1cc(F)cc(F)c1 | 0.417 | > 50 | 1.02 | 4.26 | 14 | > 5 | 35 | > 200 | – | – | – | – | – | – | – | – | – | – | – | – |
| CC(C)(C)CN/C(=N\O)c1ccccc1-c1ccccc1 | 0.183 | > 50 | 1.12 | 4.67 | 13 | 2.02 (≈ 7.15 µM) | 78 | 50 (≈ 14.1 µg/mL) | – | – | – | – | – | – | – | – | – | – | – | – |
| COC/C(=N/O)c1ccc(OC)cc1 | 0.733 | > 50 | 5.25 | 1.64 | 3 | > 5 | 19 | 50 (≈ 9.76 µg/mL) | – | – | – | – | – | – | – | – | – | – | – | – |
| O/N=C(\CNC1CCCCC1)c1ccccc1 | 0.25 | > 50 | 2.77 | 2.78 | 5 | > 5 | 55 | 25 (≈ 5.81 µg/mL) | – | – | – | – | – | – | – | – | – | – | – | – |
| O/N=C(\NC1CCCCC1)c1c(F)cccc1F | – | > 50 | – | 3.67 | – | > 5 | 8 | 50 (≈ 12.7 µg/mL) | – | – | – | – | – | – | – | – | – | – | – | half-life at 1 µM ([1]; microsomes, t (1 / 2)): 1.73 h; half-life at 1 µM ([3]; microsomes, t (1 / 2)): > 5.83 h; microsomal CLint at 1 µM ([5]; microsomes, CLint in vitro): < 5 µL/min/mg |
| CCCCCC(C)NCc1coc(-c2ccc(-c3ccccc3)cc2)n1 (configuration not stated) | – | > 50 | – | 4.94 | – | 0.24 (≈ 0.689 µM) | – | – | 9.55 | 6.78 (≈ 19.5 µM) | 6.4 (≈ 18.4 µM) | 1.83 (≈ 5.25 µM) | 79.5 | 1.68 (≈ 4.82 µM) | 5 | < 1 | 0.321 (≈ 0.921 µM) | 1 | 5 (≈ 14.3 µM) | IC50 [6]: 0.25 µg/mL and 0.42 µg/mL; IC50 [21]: 0.4 µg/mL (≈ 1.15 µM) |
| O/N=C(\NC1CCCCC1)c1ccc(F)cc1 | 0.267 | > 50 | 1.2 | 4.02 | 12 | 4.92 (≈ 20.8 µM) | 53 | > 200 | – | – | – | – | – | – | – | – | – | – | – | – |

— ChEMBL document CHEMBL1857833, “Screening and optimization of specific chemical series against human African Trypanosomiasis (HAT)”
